Literature values as cited in US20090117559A1, “Methods for Determining Probability of an Adverse or Favorable Reaction to a Niacin Receptor Agonist” (priority 2005, published 2009).

What was measured:
[1] = post administration of niacin by injection

SMILES: O=C(O)c1cccnc1 [niacin, nicotinic acid]
- time after which the flushing reaction declines significantly [1]: about 30 minutes
- time at which the flushing reaction peaks [1]: about 3 minutes
- patients who cease taking niacin treatment within days after initiating therapy (human, in vivo): 30-40%
- subjects experiencing flushing in response to nicotinic acid therapy (unsegmented (general) population, Shepherd et al. 2005): 70-80%
